Measurements reported in PubChem BioAssay (NCI).
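Five concentrations, 48 hours, 96-well plates. GI50 = concentration required for 50% inhibition of growth. TGI is the concentration that stops growth completely.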

Assays:
Experiment in all cases: DTP human tumour cell line panel, 48 h
[1] = test system: SW-620 colon
[2] = test system: IGROV1 ovarian
[3] = test system: HCC-2998 colon
[4] = test system: K-562 leukemia
[5] = test system: NCI/ADR-RES ovarian
[6] = test system: ACHN renal
[7] = test system: RPMI-8226 leukemia
[8] = test system: OVCAR-8 ovarian
[9] = test system: SK-MEL-28 melanoma
[10] = test system: SF-539 CNS

SMILES	GI50 [1] [µM]	TGI [1] [µM]	GI50 [2] [µM]	TGI [2] [µM]	GI50 [3] [µM]	TGI [3] [µM]	GI50 [4] [µM]	TGI [4] [µM]	GI50 [5] [µM]	TGI [5] [µM]	GI50 [6] [µM]	TGI [6] [µM]	GI50 [7] [µM]	TGI [7] [µM]	GI50 [8] [µM]	TGI [8] [µM]	GI50 [9] [µM]	TGI [9] [µM]	GI50 [10] [µM]	TGI [10] [µM]
COc1ccc(-c2nc(-c3ccccc3)c(-c3ccccc3)[nH]2)cc1OC1CCCC1	> 100	> 100	> 100	> 100	> 100	> 100	79.5	> 100	> 100	> 100	> 100	> 100	38.1	> 100	> 100	> 100	> 100	> 100	> 100	> 100
CCCCC[C@H]1C/C=C2/C(=O)C=C[C@@H]2C/C=C\CCCC(=O)O[C@@H](CCCCC)C/C=C2/C(=O)C=C[C@@H]2C/C=C\CCCC(=O)O1	0.135	0.734	0.123	0.596	0.422	0.816	0.0891	0.561	0.776	4.57	0.373	0.755	0.098	0.599	0.112	2.7	0.196	0.675	0.423	1.09
C[C@]12CCc3sc(NCCc4ccccc4)nc3C1=CC[C@@H]1[C@@H]2CC[C@]2(C)C(=O)CC[C@@H]12	2.3	5.28	2.6	6.18	8.19	> 100	2.89	> 100	2.31	7.52	1.96	3.75	1.79	5.69	2.77	> 100	3.37	18.9	1.69	3.62
O=C(Nc1cccc(-n2cc(-c3ccncc3)c(-c3ccc(Cl)c(O)c3)n2)c1)c1ccc(N2CCOCC2)c(C(F)(F)F)c1	1.72	5.68	9.42	> 50	5.66	> 50	1.88	> 50	2.86	> 50	1.92	> 50	1.4	12.5	3.16	> 50	1.5	6.04	1.37	17.3
CNC(=O)c1cccc2cc(Oc3ccnc4cc(OCC5(N)CC5)c(OC)cc34)ccc12	5.96	20.5	7.63	28.2	11	26.2	3.55	16.7	12.7	31.9	1.96	4.48	12.9	39.7	8.77	27.4	10.4	30.3	0.403	6.61
COc1cc2ccccc2oc1=O		> 100		> 100		> 100		> 100		> 100		> 100		> 100		> 100		> 100		> 100
